Values quoted from earlier work in patent US20060068010A1, “Method for improving the bioavailability of orally delivered therapeutics” (priority 2004, published 2006).
Structures can show the parent of a compound that is named as a salt. Where two headings read alike, the source gives them in different places.

Columns and labels:
[1] = normalized to glycine = 0, most hydrophobic = 100
[2] = humans

| Compound | Hydrophobicity Index ([1]; At pH 2) | Hydrophobicity Index ([1]; At pH 7) | other results |
| --- | --- | --- | --- |
| N[C@@H](Cc1c[nH]c2ccccc12)C(=O)O [Trp, tryptophan] | 84 | 97 |  |
| Cc1nccn1CC1CCc2c(c3ccccc3n2C)C1=O (racemic) [ondansetron, (+/−) 1,2,3,9-tetrahydro-9-methyl-3-[2-methyl-1H-imidazol-1-yl]-4H-carbazol-4-one, monohydrochloride, dehydrate] |  |  | solubility classification (base form, at pH greater than 5.0): low solubility |
| CC[C@H](C)[C@H](N)C(=O)O [Ile, isoleucine] | 100 | 99 |  |
| CC(C)[C@H](N)C(=O)O [Val, valine] | 79 | 76 |  |
| N[C@@H](Cc1ccc(O)cc1)C(=O)O [Tyr, tyrosine] | 49 | 63 |  |
| N[C@@H](Cc1c[nH]cn1)C(=O)O [His, histidine] | −42 | 8 |  |
| O=C(c1ccc(OCCN2CCCCC2)cc1)c1c(-c2ccc(O)cc2)sc2cc(O)ccc12 [raloxifene hydrochloride, 6-hydroxy-2-(4-hydroxyphenyl)-3-[4-(2-piperidinoethoxy)benzoyl]benzo[p]-thiophene] |  |  | solubility (hydrochloride-salt form): approximately 0.3 mg/mL; solubility classification (hydrochloride-salt form): very slightly soluble |
| NCCCC[C@H](N)C(=O)O [Lys, lysine] | −37 | −23 |  |
| N[C@@H](Cc1ccccc1)C(=O)O [Phe, phenylalanine] | 92 | 100 |  |
| CSCC[C@H](N)C(=O)O [Met, methionine] | 74 | 74 |  |
| CC(C)NCC(O)COc1ccc(CC(N)=O)cc1 (stereo not drawn) [Atenolol, benzeneacetamide, 4-[2′-hydroxy-3′-[(1-methylethyl)amino]propoxy]-] |  |  | fraction of an oral dose absorbed from the gastrointestinal tract [2]: about 50% |
| N[C@@H](CS)C(=O)O [Cys, cysteine] | 52 | 49 |  |
| C[C@H](N)C(=O)O [Ala, Alanine] | 47 | 41 |  |
| NC(=O)C[C@H](N)C(=O)O [Asn, asparagine] | −41 | −28 |  |
| CN(CCOc1ccc(CC2SC(=O)NC2=O)cc1)c1ccccn1.O=C(O)/C=C\C(=O)O (racemic) [Rosiglitazone maleate, (±)-5-[[4-[2-(methyl-2-pyridinylamino)ethoxy]phenyl]methyl]-2,4-thiazolidinedione, (Z)-2-butenedioate (1:1)] |  |  | solubility dependence on pH (physiological pH range): decreases with increased pH |
